Measurements: US11780821B2, “Inhibitors of fibroblast activation protein” (Praxis Biotech LLC, priority 2017, dated 2023)
Read-outs that look alike come from different tables or passages of the source.

Assays:
Format in all cases: biochemical
[1] = molecular target: T1, recombinant mouse FAPα (rmFAPα) (Mus musculus, UniProt P97321); test: FAPα enzymatic exopeptidase (dipeptidase) activity assay; details: 1 μM test compound; Z-Gly-Pro-AMC substrate; read-out: rmFAPα (% exo inh @ 1 μM)
T1 construct: purchased R&S system (so in the source)
T1 sequence (P97321 1-761): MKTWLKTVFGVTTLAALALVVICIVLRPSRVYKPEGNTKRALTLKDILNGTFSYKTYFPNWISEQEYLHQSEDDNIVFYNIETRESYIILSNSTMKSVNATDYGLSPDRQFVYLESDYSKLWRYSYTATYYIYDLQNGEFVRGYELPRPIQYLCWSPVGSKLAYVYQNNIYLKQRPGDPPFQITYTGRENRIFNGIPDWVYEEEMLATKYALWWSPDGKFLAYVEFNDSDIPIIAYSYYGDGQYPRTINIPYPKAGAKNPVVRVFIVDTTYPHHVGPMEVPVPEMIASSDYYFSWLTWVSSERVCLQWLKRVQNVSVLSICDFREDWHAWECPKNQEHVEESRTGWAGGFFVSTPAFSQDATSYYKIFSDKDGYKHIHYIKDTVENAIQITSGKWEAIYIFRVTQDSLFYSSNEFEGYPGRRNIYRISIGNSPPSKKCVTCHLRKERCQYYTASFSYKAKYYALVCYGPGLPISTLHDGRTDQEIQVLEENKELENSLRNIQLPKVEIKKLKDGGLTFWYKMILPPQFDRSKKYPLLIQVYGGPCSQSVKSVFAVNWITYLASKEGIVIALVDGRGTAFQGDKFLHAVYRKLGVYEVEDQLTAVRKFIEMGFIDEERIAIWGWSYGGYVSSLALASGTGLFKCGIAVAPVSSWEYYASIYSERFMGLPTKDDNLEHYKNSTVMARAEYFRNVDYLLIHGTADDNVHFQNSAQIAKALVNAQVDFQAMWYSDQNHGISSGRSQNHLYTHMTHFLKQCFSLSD
Protocol: FAPα enzymatic exopeptidase (dipeptidase) activity assay. […] 7-Amino-4-Methylcoumarin (AMC) release was detected by measuring fluorescence at Ex/Em 380/460 nm using a Multifunction Microplate Reader (Synergy 4, Biotek). All measurements were carried out in duplicate. […] For the calculations, the average measurements from reactions containing only vehicle and substrate, without enzyme, were used as a blank and were subtracted from the rest of the measurements. Percent inhibition was calculated using the average measurements from reactions containing vehicle, enzyme, and substrate as the maximum of enzymatic activity. Measurements were performed as a single point.

[2] = molecular target: T2, recombinant human PREP (rhPREP) (Homo sapiens, UniProt P48147); test: PREP enzymatic activity assay; details: Z-Gly-Pro-AMC substrate
T2 sequence (P48147 1-710): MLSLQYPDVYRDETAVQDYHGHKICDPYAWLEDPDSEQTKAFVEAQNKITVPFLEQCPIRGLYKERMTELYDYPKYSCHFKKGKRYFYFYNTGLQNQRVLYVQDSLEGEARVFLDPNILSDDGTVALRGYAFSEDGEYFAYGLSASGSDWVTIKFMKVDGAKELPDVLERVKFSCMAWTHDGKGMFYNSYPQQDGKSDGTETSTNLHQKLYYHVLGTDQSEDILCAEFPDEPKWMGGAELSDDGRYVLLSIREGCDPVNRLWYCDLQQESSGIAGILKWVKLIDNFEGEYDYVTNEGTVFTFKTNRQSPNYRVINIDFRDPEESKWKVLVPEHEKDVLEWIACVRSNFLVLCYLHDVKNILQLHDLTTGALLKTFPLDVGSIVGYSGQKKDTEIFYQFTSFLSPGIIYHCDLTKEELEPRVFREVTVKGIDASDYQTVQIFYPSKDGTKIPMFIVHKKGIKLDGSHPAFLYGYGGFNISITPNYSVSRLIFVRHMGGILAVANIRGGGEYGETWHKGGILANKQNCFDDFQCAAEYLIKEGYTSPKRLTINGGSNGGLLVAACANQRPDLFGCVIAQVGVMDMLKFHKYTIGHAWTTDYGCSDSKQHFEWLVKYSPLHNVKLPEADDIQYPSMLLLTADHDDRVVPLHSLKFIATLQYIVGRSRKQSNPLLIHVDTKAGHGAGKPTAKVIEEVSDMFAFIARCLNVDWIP
Protocol: (§1) 7-Amino-4-Methylcoumarin (AMC) release was detected by measuring fluorescence at Ex/Em 380/460 nm using a Multifunction Microplate Reader (Synergy 4, Biotek). All measurements were carried out in triplicate.

[3] = molecular target: T3, recombinant mouse PREP (rmPREP) (Mus musculus, UniProt Q9QUR6); test: PREP enzymatic activity assay; details: Z-Gly-Pro-AMC substrate
T3 construct: purchased R&S system (so in the source)
Protocol: as §1

[4] = molecular target: T4, recombinant mouse DPPIV (rmDPPIV) (Mus musculus, UniProt P28843); test: DPPIV enzymatic activity assay; details: H-Gly-Pro-pNA substrate
T4 construct: purchased R&S system (so in the source)

[5] = molecular target: T5, recombinant human FAPα (rhFAPα) (Homo sapiens, UniProt Q12884); test: FAPα enzymatic exopeptidase (dipeptidase) activity assay; details: for IC50: exopeptidase, read-out: rhFAPα (exo IC50)
T5 construct: purchased R&S system (so in the source)
T5 sequence (Q12884 1-760): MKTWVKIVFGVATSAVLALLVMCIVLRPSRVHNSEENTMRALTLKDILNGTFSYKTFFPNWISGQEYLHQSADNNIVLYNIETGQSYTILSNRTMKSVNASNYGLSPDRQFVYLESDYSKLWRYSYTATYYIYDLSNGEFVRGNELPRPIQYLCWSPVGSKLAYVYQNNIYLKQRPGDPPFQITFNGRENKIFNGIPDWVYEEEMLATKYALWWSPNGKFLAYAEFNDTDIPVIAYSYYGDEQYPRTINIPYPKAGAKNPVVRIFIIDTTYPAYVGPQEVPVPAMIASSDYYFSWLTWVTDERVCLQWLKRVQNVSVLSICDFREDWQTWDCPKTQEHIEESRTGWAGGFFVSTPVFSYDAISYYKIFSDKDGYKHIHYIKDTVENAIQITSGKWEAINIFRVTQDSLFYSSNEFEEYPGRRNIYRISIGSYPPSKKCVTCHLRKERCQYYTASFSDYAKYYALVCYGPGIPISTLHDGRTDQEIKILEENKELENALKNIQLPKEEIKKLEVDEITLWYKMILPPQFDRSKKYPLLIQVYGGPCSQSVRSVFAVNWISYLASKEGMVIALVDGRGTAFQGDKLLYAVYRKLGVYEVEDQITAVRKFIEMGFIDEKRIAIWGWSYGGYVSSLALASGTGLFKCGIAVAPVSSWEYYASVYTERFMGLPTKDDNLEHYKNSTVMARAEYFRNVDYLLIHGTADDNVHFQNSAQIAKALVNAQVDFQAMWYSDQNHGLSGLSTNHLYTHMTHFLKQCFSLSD

[6] = molecular target: T1, recombinant mouse FAPα (rmFAPα); test: as above; details: for IC50: exopeptidase, read-out: rmFAPα (exo IC50)
[7] = molecular target: T6, recombinant human DPPIV (rhDPPIV) (Homo sapiens, UniProt P27487); test: DPPIV enzymatic activity assay; details: H-Gly-Pro-pNA substrate
T6 construct: purchased R&S system (so in the source)

[8] = molecular target: T7, recombinant human DPP9 (rhDPP9) (Homo sapiens, UniProt Q86TI2); test: DPP9 enzymatic activity assay; details: H-Gly-Pro-AMC substrate
T7 construct: purchased R&S system (so in the source)
Protocol: as §1

T4 sequence (P28843 whole entry): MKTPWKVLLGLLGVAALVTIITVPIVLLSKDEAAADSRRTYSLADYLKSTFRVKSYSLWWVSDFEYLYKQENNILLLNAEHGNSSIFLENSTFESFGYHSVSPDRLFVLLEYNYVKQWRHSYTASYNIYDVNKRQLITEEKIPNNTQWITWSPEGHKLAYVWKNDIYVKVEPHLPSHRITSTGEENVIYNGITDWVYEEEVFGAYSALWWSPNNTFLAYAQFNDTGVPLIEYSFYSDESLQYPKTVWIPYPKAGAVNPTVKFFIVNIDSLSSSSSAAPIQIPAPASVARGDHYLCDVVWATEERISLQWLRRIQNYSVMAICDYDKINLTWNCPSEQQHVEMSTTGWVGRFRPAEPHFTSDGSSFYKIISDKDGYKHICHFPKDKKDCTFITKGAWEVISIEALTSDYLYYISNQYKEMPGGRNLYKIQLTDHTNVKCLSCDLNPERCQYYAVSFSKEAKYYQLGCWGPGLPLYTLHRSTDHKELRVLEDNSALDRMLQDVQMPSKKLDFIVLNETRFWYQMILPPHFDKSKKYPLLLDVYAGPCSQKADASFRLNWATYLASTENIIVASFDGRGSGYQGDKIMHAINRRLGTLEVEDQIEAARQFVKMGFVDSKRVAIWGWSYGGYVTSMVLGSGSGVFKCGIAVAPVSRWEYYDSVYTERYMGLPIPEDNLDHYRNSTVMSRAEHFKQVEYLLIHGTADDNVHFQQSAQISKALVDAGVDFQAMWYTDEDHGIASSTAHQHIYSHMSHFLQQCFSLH
T3 sequence (Q9QUR6 whole entry): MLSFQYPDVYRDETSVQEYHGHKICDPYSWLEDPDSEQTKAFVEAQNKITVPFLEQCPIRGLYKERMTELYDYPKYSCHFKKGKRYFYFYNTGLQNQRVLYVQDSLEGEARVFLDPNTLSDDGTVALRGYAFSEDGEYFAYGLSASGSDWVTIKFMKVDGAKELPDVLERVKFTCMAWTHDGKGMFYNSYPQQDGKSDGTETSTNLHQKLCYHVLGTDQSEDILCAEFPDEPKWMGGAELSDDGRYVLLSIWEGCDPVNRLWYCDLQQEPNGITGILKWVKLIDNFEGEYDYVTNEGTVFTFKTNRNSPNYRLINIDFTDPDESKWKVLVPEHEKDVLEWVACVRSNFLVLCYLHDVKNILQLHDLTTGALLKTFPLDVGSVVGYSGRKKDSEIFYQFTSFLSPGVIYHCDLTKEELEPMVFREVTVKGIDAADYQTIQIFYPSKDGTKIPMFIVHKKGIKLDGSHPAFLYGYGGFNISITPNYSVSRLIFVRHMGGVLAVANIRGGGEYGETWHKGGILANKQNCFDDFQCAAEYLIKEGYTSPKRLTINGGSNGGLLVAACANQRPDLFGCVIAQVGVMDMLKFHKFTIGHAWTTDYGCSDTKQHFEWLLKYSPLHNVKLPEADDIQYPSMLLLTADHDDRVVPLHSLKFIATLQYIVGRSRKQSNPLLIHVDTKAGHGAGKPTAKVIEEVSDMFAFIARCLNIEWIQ
T6 sequence (P27487 whole entry): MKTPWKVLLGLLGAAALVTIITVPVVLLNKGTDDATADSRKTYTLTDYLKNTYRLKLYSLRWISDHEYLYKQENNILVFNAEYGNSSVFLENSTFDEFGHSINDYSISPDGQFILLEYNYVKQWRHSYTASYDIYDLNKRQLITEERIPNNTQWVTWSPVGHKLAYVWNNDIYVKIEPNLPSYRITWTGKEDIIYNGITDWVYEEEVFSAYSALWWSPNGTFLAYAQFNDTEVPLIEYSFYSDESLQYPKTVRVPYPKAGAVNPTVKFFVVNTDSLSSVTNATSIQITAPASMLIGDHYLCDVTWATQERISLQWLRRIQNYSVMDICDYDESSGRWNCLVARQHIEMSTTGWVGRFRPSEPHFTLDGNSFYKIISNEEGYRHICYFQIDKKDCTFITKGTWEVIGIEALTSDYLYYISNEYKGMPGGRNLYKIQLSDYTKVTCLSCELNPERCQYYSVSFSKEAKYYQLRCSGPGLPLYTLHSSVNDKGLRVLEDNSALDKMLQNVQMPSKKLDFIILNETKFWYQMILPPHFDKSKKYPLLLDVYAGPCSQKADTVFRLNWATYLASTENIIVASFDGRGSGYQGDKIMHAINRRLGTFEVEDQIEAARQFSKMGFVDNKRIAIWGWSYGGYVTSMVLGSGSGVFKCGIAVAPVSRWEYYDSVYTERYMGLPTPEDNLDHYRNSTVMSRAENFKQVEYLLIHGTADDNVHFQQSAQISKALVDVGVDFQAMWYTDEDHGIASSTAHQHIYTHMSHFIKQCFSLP
T7 sequence (Q86TI2 whole entry): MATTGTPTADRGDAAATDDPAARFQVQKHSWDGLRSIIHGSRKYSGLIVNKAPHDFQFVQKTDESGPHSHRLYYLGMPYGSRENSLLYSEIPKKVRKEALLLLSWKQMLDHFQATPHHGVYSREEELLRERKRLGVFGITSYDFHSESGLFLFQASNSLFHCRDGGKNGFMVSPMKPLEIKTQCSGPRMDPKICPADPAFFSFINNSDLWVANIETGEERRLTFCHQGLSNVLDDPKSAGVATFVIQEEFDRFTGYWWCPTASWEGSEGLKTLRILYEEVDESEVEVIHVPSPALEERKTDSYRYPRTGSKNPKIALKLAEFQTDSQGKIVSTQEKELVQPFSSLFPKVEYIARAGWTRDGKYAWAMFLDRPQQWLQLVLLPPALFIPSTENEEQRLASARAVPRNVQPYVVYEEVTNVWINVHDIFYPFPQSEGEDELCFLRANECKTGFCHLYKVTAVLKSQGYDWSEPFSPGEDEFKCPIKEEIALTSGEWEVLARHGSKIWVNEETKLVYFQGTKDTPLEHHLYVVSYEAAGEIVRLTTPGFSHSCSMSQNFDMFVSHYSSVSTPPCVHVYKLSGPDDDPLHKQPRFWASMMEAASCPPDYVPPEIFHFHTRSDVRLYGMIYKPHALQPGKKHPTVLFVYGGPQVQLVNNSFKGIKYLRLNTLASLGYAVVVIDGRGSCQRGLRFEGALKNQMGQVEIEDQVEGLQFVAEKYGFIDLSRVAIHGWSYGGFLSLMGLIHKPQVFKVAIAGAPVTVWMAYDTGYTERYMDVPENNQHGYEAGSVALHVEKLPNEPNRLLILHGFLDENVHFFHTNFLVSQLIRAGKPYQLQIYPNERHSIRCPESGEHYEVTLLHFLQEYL

inhibition at 1 µM [1] [%] | IC50 [4] [nM] | IC50 ([5]; Table 2, Z-Gly-Pro-AMC) [nM] | Compound | also measured
< 25 |  |  | N#C[C@@H]1CC(F)(F)CN1C(=O)CNC(=O)N1Cc2ccccc2C1 [Example 8, (S)—N-(2-(2-cyano-4,4-difluoropyrrolidin-1-yl)-2-oxoethyl) isoindoline-2-carboxamide] | 
25 to 50 |  |  | N#C[C@@H]1CC(F)(F)CN1C(=O)CNC(=O)c1ccc(C(N)=O)cc1 [Compound 11, (S)—N-(2-(2-cyano-4,4-difluoropyrrolidin-1-yl)-2-oxoethyl)terephthalamide] | 
25 to 50 |  |  | N#C[C@@H]1CC(F)(F)CN1C(=O)CNC(=O)c1cn(C2CC2)c(=O)c2ccccc12 [Example 3, (S)—N-(2-(2-cyano-4,4-difluoropyrrolidin-1-yl)-2-oxoethyl)-2-cyclopropyl-1-oxo-1,2-dihydroisoquinoline-4-carboxamide] | 
> 50 | 1000 to 10000 | < 1000 | N#C[C@@H]1CC(F)(F)CN1C(=O)CNC(=O)c1ccc2ncccc2c1 [Example 4, (S)—N-(2-(2-cyano-4,4-difluoropyrrolidin-1-yl)-2-oxoethyl)quinoline-6-carboxamide] | IC50 [2]: > 10000 nM; IC50 [3]: > 10000 nM; IC50 ([6]; Table 2, Z-Gly-Pro-AMC): < 1000 nM; IC50 ([6]; Table 3): < 1000 nM; IC50 [7]: > 10000 nM
> 50 | > 10000 | < 1000 | Cn1cc(C(=O)NCC(=O)N2CC(F)(F)C[C@H]2C#N)c2ccccc2c1=O [Example 9, (S)—N-(2-(2-cyano-4,4-difluoropyrrolidin-1-yl)-2-oxoethyl)-2-methyl-1-oxo-1,2-dihydroisoquinoline-4-carboxamide] | IC50 [3]: < 1000 nM; IC50 [8]: > 10000 nM; IC50 ([5]; Table 3): < 1000 nM; IC50 ([6]; Table 2, Z-Gly-Pro-AMC): < 1000 nM; IC50 ([6]; Table 3): < 1000 nM
< 25 |  |  | N#C[C@@H]1CC(F)(F)CN1C(=O)CNC(=O)C1Cc2ccccc2C1 [Example 7, (S)—N-(2-(2-cyano-4,4-difluoropyrrolidin-1-yl)-2-oxoethyl)-2,3-dihydro-1H-indene-2-carboxamide] | 
25 to 50 |  |  | N#Cc1ccc(C(=O)NCC(=O)N2CC(F)(F)C[C@H]2C#N)cc1C(F)(F)F [Compound 12, (S)-4-cyano-N-(2-(2-cyano-4,4-difluoropyrrolidin-1-yl)-2-oxoethyl)-3-(trifluoromethyl)benzamide] | 
25 to 50 |  |  | N#C[C@@H]1CC(F)(F)CN1C(=O)CNC(=O)c1ccc2nc(O)ccc2c1 [Compound 10, (S)—N-(2-(2-cyano-4,4-difluoropyrrolidin-1-yl)-2-oxoethyl)-2-hydroxyquinoline-6-carboxamide] | 
 | > 10000 | < 1000 | Cn1cc(C(=O)NCC(=O)N2CC(F)(F)C[C@H]2C#N)ccc1=O [Compound 16, (S)—N-(2-(2-cyano-4,4-difluoropyrrolidin-1-yl)-2-oxoethyl)-1-methyl-6-oxo-1,6-dihydropyridine-3-carboxamide] | IC50 [3]: > 10000 nM; IC50 ([5]; Table 3): < 1000 nM; inhibition at 1 µM ([5]; read-out: rhFAPα (% exo inh @ 1 μM)): > 50%
25 to 50 |  |  | N#C[C@@H]1CC(F)(F)CN1C(=O)CNC(=O)c1cn(-c2ccccc2)c(=O)c2ccccc12 [Example 2, (S)—N-(2-(2-cyano-4,4-difluoropyrrolidin-1-yl)-2-oxoethyl)-1-oxo-2-phenyl-1,2-dihydroisoquinoline-4-carboxamide] | 
< 25 |  |  | N#C[C@@H]1CC(F)(F)CN1C(=O)CNC(=O)c1ncnc2c1CCC2 [Example 5, (S)—N-(2-(2-cyano-4,4-difluoropyrrolidin-1-yl)-2-oxoethyl)-6,7-dihydro-5H-cyclopenta[d]pyrimidine-4-carboxamide] | 

Compound | inhibition at 1 µM [1] [%] | IC50 [4] [nM] | IC50 ([5]; Table 2, Z-Gly-Pro-AMC) [nM] | also measured
N#C[C@@H]1CC(F)(F)CN1C(=O)CNC(=O)c1ccc(=O)[nH]c1 [Example 6, (S)—N-(2-(2-cyano-4,4-difluoropyrrolidin-1-yl)-2-oxoethyl)-6-oxo-1,6-dihydropyridine-3-carboxamide] |  | > 10000 | < 1000 | IC50 ([6]; Table 2, Z-Gly-Pro-AMC): < 1000 nM; IC50 ([6]; Table 3): < 1000 nM; inhibition at 1 µM ([6]; read-out: rmFAPα (% exo inh @ 1 μM)): > 50%; IC50 [7]: > 10000 nM
